Counter-ions that a name gives are not always drawn.
System: prurigo nodularis patients
Experiment: TR03ext (Example 3), titrated 30 mg QD to 180 mg BID: itchy Verbal Rating Scale (VRS)
Type: in vivo, human
Conditions: for VRS Itch Visit Mean (SD): Baseline 2.7 (0.8)
From the text: This clinical study was a Phase 2 Open Label Extension Study (clinical study TR03ext) of the randomized, double-blind, 3-parallel arm, placebo controlled dose ranging study described in Example 2. All those subjects who were randomized, and then completed Example 2 study, were eligible to participate in the Extension Study.
The primary endpoint was a description of the overall incidence and nature of Treatment-Emergent AEs (TEAES) during weeks 5-50 of the study. Exploratory efficacy endpoints included Change from Baseline patient reported outcome measures of Worst itch NRS, itchy VRS and ItchyQoL, by Treatment Period study visit and Baseline NRS score. There was also an assessment of any potential skin lesion changes over time using the metrics of the PAS.
Of the 63 patients that were randomized to the study of Example 2, 36 subjects who enrolled into Extension Study entered the Treatment Period of the study and were exposed to nalbuphine HCl ER tablet administration and are the basis of the study safety population analysis.
Patients in Extension Study were titrated over a dose range of 30 mg QD to 180 mg BID based on tolerability. The selected dose range was based on Example 2 study whereby patients were titrated from a 30 mg QD dose either to 30 mg BID, 60 mg BID, 90 mg BID, 120 mg BID or a 180 mg BID dose. The highest dose proposed was 180 mg BID (360 mg daily dose), and was well below the highest recommended daily treatment of 160 mg IV (equivalent to 960 mg oral) for the current marketed parenteral administered product.
The study duration for each patient was up to 52 weeks, with up to 50 weeks on study drug. The Extension Study consisted of a Treatment Period (that was followed by a Washout Safety Follow-up Period) and an Observation Period. Patients either entered directly into a drug Treatment Period (NRS >5) or a no-drug Observation Period (NRS ≤5) based on their reported NRS scores on the first Visit (Visit 1a). For up to 12 Extended Screening weeks, patients in the no-drug Observation Period could have also transitioned into the drug Treatment Period if their NRS increased to NRS >5. All patients entering the Treatment Period, whether immediately upon study entry or following a period of time in the Observation Period, were titrated to a dose ranging between 30 mg up to 180 mg BID, the highest dose tested in Example 2.

[1] = Patients With At Least 6 Months of Treatment N = 18
[2] = Patients With At Least 9 Months of Treatment N = 15

## Oc1ccc2c3c1OC1[C@@H](O)CC[C@@]4(O)[C@@H](C2)N(CC2CCC2)CC[C@]314 (stereo partly drawn) [Nalbuphine, 17-(cyclobutylmethyl)-4,5α-epoxymorphinian-3, 6α, 14-triol, hydrochloride]
All Patients N = 36
  VRS Itch Improvement Category 1 Grade Better, baseline to last observed value, patients (%): 16 (44.4%)
  VRS Itch Improvement Category 1 Grade Worse, baseline to last observed value, patients (%): 0
  VRS Itch Improvement Category 2-4 Grades Worse, baseline to last observed value, patients (%): 0
  VRS Itch Improvement Category 2 Grades Better, baseline to last observed value, patients (%): 9 (25.0%)
  VRS Itch Improvement Category 3 Grades Better, baseline to last observed value, patients (%): 1 (2.8%)
  VRS Itch Improvement Category 4 Grades Better, baseline to last observed value, patients (%): 0
  VRS Itch Improvement Category No Change, baseline to last observed value, patients (%): 3 (8.3%)
Completers N = 14
  VRS Itch Improvement Category 1 Grade Better, baseline to last observed value, patients (%): 5 (35.7%)
  VRS Itch Improvement Category 1 Grade Worse, baseline to last observed value, patients (%): 0
  VRS Itch Improvement Category 2-4 Grades Worse, baseline to last observed value, patients (%): 0
  VRS Itch Improvement Category 2 Grades Better, baseline to last observed value, patients (%): 7 (50.0%)
  VRS Itch Improvement Category 3 Grades Better, baseline to last observed value, patients (%): 0
  VRS Itch Improvement Category 4 Grades Better, baseline to last observed value, patients (%): 0
  VRS Itch Improvement Category No Change, baseline to last observed value, patients (%): 2 (14.3%)
[1]
  VRS Itch Improvement Category 1 Grade Better, baseline to last observed value, patients (%): 6 (33.3%)
  VRS Itch Improvement Category 1 Grade Worse, baseline to last observed value, patients (%): 0
  VRS Itch Improvement Category 2-4 Grades Worse, baseline to last observed value, patients (%): 0
  VRS Itch Improvement Category 2 Grades Better, baseline to last observed value, patients (%): 9 (50.0%)
  VRS Itch Improvement Category 3 Grades Better, baseline to last observed value, patients (%): 1 (5.6%)
  VRS Itch Improvement Category 4 Grades Better, baseline to last observed value, patients (%): 0
  VRS Itch Improvement Category No Change, baseline to last observed value, patients (%): 2 (11.1%)
[2]
  VRS Itch Improvement Category 1 Grade Better, baseline to last observed value, patients (%): 6 (40.0%)
  VRS Itch Improvement Category 1 Grade Worse, baseline to last observed value, patients (%): 0
  VRS Itch Improvement Category 2-4 Grades Worse, baseline to last observed value, patients (%): 0
  VRS Itch Improvement Category 2 Grades Better, baseline to last observed value, patients (%): 7 (46.7%)
  VRS Itch Improvement Category 3 Grades Better, baseline to last observed value, patients (%): 0
  VRS Itch Improvement Category 4 Grades Better, baseline to last observed value, patients (%): 0
  VRS Itch Improvement Category No Change, baseline to last observed value, patients (%): 2 (13.3%)
Study Week 3, N=34
  VRS Itch Mean (SD) Change from Baseline: −0.6 (0.9)
  VRS Itch Visit Mean (SD): 2.1 (1.1)
Study Week 5, N=33
  VRS Itch Mean (SD) Change from Baseline: −0.9 (1.0)
  VRS Itch Visit Mean (SD): 1.8 (1.0)
Study Week 9, N=30
  VRS Itch Mean (SD) Change from Baseline: −0.9 (0.8)
  VRS Itch Visit Mean (SD): 1.7 (0.9)
Study Week 13, N=25
  VRS Itch Mean (SD) Change from Baseline: −1.1 (0.8)
  VRS Itch Visit Mean (SD): 1.5 (0.8)
Study Week 17, N=25
  VRS Itch Mean (SD) Change from Baseline: −1.2 (1.2)
  VRS Itch Visit Mean (SD): 1.4 (1.0)
Study Week 21, N=22
  VRS Itch Mean (SD) Change from Baseline: −1.2 (0.8)
  VRS Itch Visit Mean (SD): 1.4 (0.7)
Study Week 26, N=21
  VRS Itch Mean (SD) Change from Baseline: −1.2 (0.9)
  VRS Itch Visit Mean (SD): 1.4 (0.9)
Study Week 30, N=20
  VRS Itch Mean (SD) Change from Baseline: −1.5 (0.8)
  VRS Itch Visit Mean (SD): 1.1 (0.8)
Study Week 34, N=18
  VRS Itch Mean (SD) Change from Baseline: −1.2 (0.8)
  VRS Itch Visit Mean (SD): 1.4 (0.6)
Study Week 38, N=17
  VRS Itch Mean (SD) Change from Baseline: −1.2 (0.7)
  VRS Itch Visit Mean (SD): 1.4 (0.6)
Study Week 42, N=17
  VRS Itch Mean (SD) Change from Baseline: −1.4 (0.6)
  VRS Itch Visit Mean (SD): 1.2 (0.6)
Study Week 46, N=17
  VRS Itch Mean (SD) Change from Baseline: −1.4 (0.6)
  VRS Itch Visit Mean (SD): 1.2 (0.7)
Study Week 50, N=15
  VRS Itch Mean (SD) Change from Baseline: −1.5 (0.7)
  VRS Itch Visit Mean (SD): 1.1 (0.6)
